Results published in patent publication US20060217418A1, “Substituted alkyl amido piperidines” (priority 2001, published 2006).

Target: T1, rat MCH1 receptor (Rattus norvegicus, UniProt P97639)
T1 construct: operatively linked to DNA encoding the rat MCH1 receptor so as to permit expression thereof; expressed in transfected cells; host or cells: Human embryonic kidney Peak rapid 293 (Peakr293) cells, transient calcium phosphate transfection, membranes
Assay: Radioligand binding assay at cloned rat MCH1 receptor ([3H]Compound A)
Conditions: cloned rat MCH1, Peakr293 cell membranes, 0.08 nM [3H]Compound A, 25° C., 90 minutes; read-out: Ki(MCH-1)

T1 sequence (P97639 whole entry): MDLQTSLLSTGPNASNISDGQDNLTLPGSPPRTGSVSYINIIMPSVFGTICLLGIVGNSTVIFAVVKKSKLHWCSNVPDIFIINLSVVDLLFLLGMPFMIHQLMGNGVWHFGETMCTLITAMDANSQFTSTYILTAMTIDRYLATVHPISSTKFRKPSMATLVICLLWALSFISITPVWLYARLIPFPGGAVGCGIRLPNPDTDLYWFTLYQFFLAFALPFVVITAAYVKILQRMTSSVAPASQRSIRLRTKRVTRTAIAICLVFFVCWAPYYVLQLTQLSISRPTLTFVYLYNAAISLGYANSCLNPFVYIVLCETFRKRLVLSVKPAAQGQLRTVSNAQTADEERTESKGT

SMILES	Ki [nM]
CC(C)C(=O)Nc1ccc(F)c(C2CCN(CCCNC(=O)C3(c4ccc(F)cc4Cl)CCCC3)CC2)c1 [Example 137, 1-(2-CHLORO-4-FLUOROPHENYL)-N-(3-{4-[2-FLUORO-5-(ISOBUTYRYLAMINO) PHENYL]-1-PIPERIDINYL}PROPYL)CYCLOPENTANECARBOXAMIDE]	11.8
CC(C)C(=O)Nc1cccc(C2CCN(CCCNC(=O)C(c3ccccc3)(c3ccccc3)c3ccccc3)CC2)n1 [Example 82]	8.6
COc1ccc(NC(=O)C(C)C)cc1C1CCN(CCCNC(=O)C(c2ccc(F)cc2)c2ccc(F)cc2)CC1 [Example 23]	13.1
CC(=O)Nc1cccc(C2CCN(CCCNC(=O)C3(c4ccc(F)cc4)CCCCC3)CC2)c1 [Example 70, N-(3-{4-[3-(ACETYLAMINO)PHENYL]-1-PIPERIDINYL}PROPYL)-1-(4-FLUORO PHENYL)CYCLOHEXANECARBOXAMIDE]	26.7
Cc1ccc(NC(=O)C(C)C)cc1C1CCN(CCCNC(=O)C2(c3ccc(F)cc3Cl)CCCC2)CC1 [Example 135, 1-(2-CHLORO-4-FLUOROPHENYL)-N-(3-{4-[5-(ISOBUTYRYLAMINO)-2-METHYL PHENYL]-1-PIPERIDINYL}PROPYL)CYCLOPENTANECARBOXAMIDE]	5.2
Cc1ccc(C(C(=O)NCCCN2CCC(c3cccc(NC(=O)C4CC4)c3)CC2)c2ccc(C)cc2)cc1 [Example 111, N-{3-[1-(3-{[2,2-BIS(4-METHYLPHENYL)ACETYL]AMINO}PROPYL)-4-PIPERIDINYL] PHENYL}CYCLOPROPANECARBOXAMIDE]	1.2
CCCC(=O)Nc1cccc(C2CCN(CCCNC(=O)C3(c4ccc(Cl)cc4)CCCC3)CC2)c1 [Example 102, N-(3-{4-[3-(BUTYRYLAMINO)PHENYL]-1-PIPERIDINYL}PROPYL)-1-(4-CHLOROPHENYL) CYCLOPENTANECARBOXAMIDE]	7.9
CC(=O)Nc1cccc(C2CCN(CCCNC(=O)C3(c4ccc(Cl)cc4)CC3)CC2)c1 [Example 71, N-(3-{4-[3-(ACETYLAMINO)PHENYL]-1-PIPERIDINYL}PROPYL)-1-(4-CHLORO PHENYL) CYCLOPROPANECARBOXAMIDE]	54.5
Cc1ccc(C(C(=O)NCCCN2CCC(c3cc(NC(=O)C(C)C)ccc3F)CC2)c2ccc(C)cc2)cc1 [Example 132]	0.6
O=C(Nc1cccc(C2CCN(CCCNC(=O)C(c3ccc(F)cc3)c3ccc(F)cc3)CC2)c1)C1CC1 [Example 120, N-{3-[1-(3-{[2,2-BIS(4-FLUOROPHENYL)ACETYL]AMINO}PROPYL)-4-PIPERIDINYL] PHENYL}CYCLOPROPANECARBOXAMIDE]	0.4
CC(C)C(=O)Nc1cccc(C2CCN(CCCNC(=O)C3(c4ccc(Cl)cc4)CCCCC3)CC2)n1 [Example 67, 1-(4-CHLOROPHENYL)-N-(3-{4-[6-(ISOBUTYRYLAMINO)-2-PYRIDINYL]-1-PIPERIDINYL} PROPYL)CYCLOHEXANECARBOXAMIDE]	9.9
CC(C)C(=O)Nc1cncc(C2CCN(CCCNC(=O)C(c3ccc(F)cc3)c3ccc(F)cc3)CC2)c1 [Example 172, N-{5-[1-(3-{[bis(4-fluorophenyl)acetyl]amino}propyl)-4-piperidinyl]-3-pyridinyl}-2-methylpropanamide]	2.5
CC(C)OC(=O)Nc1cccc(C2CCN(CCCNC(=O)C3(c4ccc(F)cc4Cl)CCCCC3)CC2)c1 [Example 147, ISOPROPYL 3-{1-[3-({[1-(2-CHLORO-4-FLUOROPHENYL)CYCLOHEXYL]CARBONYL} AMINO)PROPYL]-4-PIPERIDINYL}PHENYLCARBAMATE]	42
CCCC(=O)Nc1cccc(C2CCN(CCCNC(=O)C3(c4ccc(Cl)cc4)CCC3)CC2)c1 [Example 106, N-(3-{4-[3-(BUTYRYLAMINO)PHENYL]-1-PIPERIDINYL}PROPYL)-1-(4-CHLOROPHENYL) CYCLOBUTANECARBOXAMIDE]	19
Cc1ccc(NC(=O)C(C)C)cc1C1CCN(CCCNC(=O)Cc2ccc(F)cc2)CC1 [Example 175, N-{3-[1-(3-{[(4-fluorophenyl)acetyl]amino}propyl)-4-piperidinyl]-4-methylphenyl}-2-methyl propanamide]	24.7
CCCC(=O)Nc1ccc(C2CCN(CCCNC(=O)C(c3ccccc3)c3ccccc3)CC2)cc1 [Example 149]	467
CCC(=O)Nc1cccc(C2CCN(CCCNC(=O)C3(c4ccc(F)cc4)CCCCC3)CC2)c1 [Example 61, 1-(4-FLUOROPHENYL)-N-(3-{4-[3-(PROPIONYLAMINO)PHENYL]-1-PIPERIDINYL} PROPYL)CYCLOHEXANECARBOXAMIDE]	63.3
Cc1ccc(NC(=O)C(C)C)cc1C1CCN(CCCNC(=O)C(c2ccc(Cl)cc2)c2ccc(Cl)cc2)CC1 [Example 52]	4.1
CC(C)C(=O)Nc1cccc(C2CCN(CCCNC(=O)C3(c4ccc(Cl)cc4)CCC3)CC2)n1 [Example 73, 1-(4-CHLOROPHENYL)-N-(3-{4-[6-(ISOBUTYRYLAMINO)-2-PYRIDINYL]-1-PIPERIDINYL} PROPYL)CYCLOBUTANECARBOXAMIDE]	32.4
O=C(Nc1cccc(C2CCN(CCCNC(=O)C3(c4ccc(Cl)cc4Cl)CC3)CC2)c1)C1CC1 [Example 117, N-[3-(4-{3-[(CYCLOPROPYLCARBONYL)AMINO]PHENYL}-1-PIPERIDINYL) PROPYL]-1-(2,4-DICHLOROPHENYL)CYCLOPROPANECARBOXAMIDE]	17.9
Cc1ccc(C(C(=O)NCCCN2CCC(c3cccc(NC(=O)OC(C)C)c3)CC2)c2ccc(C)cc2)cc1 [Example 145, ISOPROPYL 3-[1-(3-{[BIS(4-METHYLPHENYL)ACETYL]AMINO}PROPYL)-4-PIPERIDINYL]PHENYLCARBAMATE]	26.9
CC(C)OC(=O)Nc1cccc(C2CCN(CCCNC(=O)C(c3ccc(Cl)cc3)c3ccc(Cl)cc3)CC2)c1 [Example 143, Isopropyl 3-[1-(3-{[bis(4-chlorophenyl)acetyl]amino}propyl)-4-piperidinyl]phenylcarbamate]	6.2
Cc1ccc(NC(=O)C(C)C)cc1C1CCN(CCCNC(=O)C2(c3ccc(Cl)cc3)CC2)CC1 [Example 89]	10.8
CCCC(=O)Nc1ccc(F)c(C2CCN(CCCNC(=O)C(c3ccccc3)c3ccccc3)CC2)c1 [Example 25]	2.1
CC(C)(C(=O)NCCCN1CCC(c2cccc(NC(=O)C3CC3)c2)CC1)c1ccc(Cl)cc1 [Example 115]	6.9
CCCC(=O)Nc1cc(C2CCN(CCCNC(=O)C(c3ccc(F)cc3)c3ccc(F)cc3)CC2)ccc1F [Example 104]	0.9

The remaining lines, values ahead:

Ki [nM]	SMILES
1040	CCSC(C(=O)NCCCN1CCC(c2cccc(NC(=O)C(C)C)c2)CC1)(c1ccccc1)c1ccccc1 [Example 16, N-{3-[1-(3{[(ETHYLSULFANYL)(DIPHENYL)ACETYL]AMINO}PROPYL)-4-PIPERIDINYL] PHENYL}-2-METHYLPROPANAMIDE]
39.9	CC(C)C(=O)Nc1cccc(C2CCN(CCCNC(=O)C3(c4ccc(Cl)cc4Cl)CC3)CC2)c1 [Example 41, 1-(2,4-DICHLOROPHENYL-N-(3-{4-[3-(ISOBUTYRYLAMINO)PHENYL]-1-PIPERIDINYL} PROPYL)CYCLOPROPANECARBOXAMIDE]
7.7	CCCC(=O)Nc1cccc(C2CCN(CCCNC(=O)C(C)(C)c3ccc(Cl)cc3)CC2)c1 [Example 80]
34.3	CC(C)C(=O)Nc1cccc(C2CCN(CCCNC(=O)C(C)c3ccc(F)cc3)CC2)c1 (stereo not shown) [Example 42, 2-(4-FLUOROPHENYL)-N-(3-{4-[3-(ISOBUTYRYLAMINO)PHENYL]-1-PIPERIDINYL} PROPYL)PROPANAMIDE]
2.3	Cc1ccc(C(C(=O)NCCCN2CCC(c3cccc(NC(=O)C(C)C)c3)CC2)c2ccc(C)cc2)cc1 [Example 34, N-{3-[1-(3-{[BIS(4-METHYLPHENYL)ACETYL]AMINO}PROPYL)-4-PIPERIDINYL] PHENYL}-2-METHYLPROPANAMIDE]
71.6	CC(C)C(=O)Nc1cccc(C2CCN(CCCNC(=O)C(Br)c3ccccc3)CC2)c1 (stereo not shown) [Example 9, N-{3-[1-(3-{[BROMO(PHENYL)ACETYL]AMINO}PROPYL)-4-PIPERIDINYL] PHENYL}-2-METHYLPROPANAMIDE]
2.7	CCC(=O)Nc1cccc(C2CCN(CCCNC(=O)C(c3ccccc3)c3c(C)cc(C)cc3C)CC2)c1 (stereo not shown) [Example 14, N-[3-(1-{3-[(2-MESITYL-2-PHENYLACETYL)AMINO]PROPYL}-4-PIPERIDINYL)PHENYL] PROPANAMIDE]
9.1	CC(C)C(=O)Nc1c(F)cc(F)c(C2CCN(CCCNC(=O)C(c3ccccc3)c3ccccc3)CC2)c1F [Example 171, N-[3-(1-{3-[(diphenylacetyl)amino]propyl}-4-piperidinyl)-2,4,6-trifluorophenyl]-2-methylpropanamide]
30.7	CCCC(=O)Nc1cccc(C2CCN(CCCNC(=O)C(C)c3ccc(Cl)cc3)CC2)c1 (stereo not shown) [Example 77, N-{3-[1-(3-{[2-(4-CHLOROPHENYL)PROPANOYL]AMINO}PROPYL)-4-PIPERIDINYL] PHENYL}BUTANAMIDE]
8.6	CC[C@@H](C(=O)NCCCN1CCC(c2cc(NC(=O)C(C)C)ccc2C)CC1)c1ccccc1 [Example 162, (2R)-N-(3-{4-[5-(isobutyrylamino)-2-methylphenyl]-1-piperidinyl}propyl)-2-phenylbutan amide]
70.7	CCC(=O)Nc1cccc(C2CCN(CCCNC(=O)C(C)c3ccc(F)cc3)CC2)c1 (stereo not shown) [Example 64, 2-(4-FLUOROPHENYL)-N-(3-{4-[3-PROPIONYLAMINO)PHENYL]-1-PIPERIDINYL} PROPYL) PROPANAMIDE]
2.4	CC(C)C(=O)Nc1cccc(C2CCN(CCCNC(=O)C(c3ccc(Cl)cc3)c3ccc(Cl)cc3)CC2)c1 [Example 2, N-{3-[1-(3-{[BIS(4-CHLOROPHENYL)ACETYL]AMINO}PROPYL)-4-PIPERIDINYL] PHENYL}-2-METHYLPROPANAMIDE]
8.2	CC(C)C(=O)Nc1cccc(C2CCN(CCCNC(=O)C3(c4ccc(Cl)cc4)CCCC3)CC2)c1 [Example 31, 1-(4-CHLOROPHENYL)-N-(3-{4-[3-(ISOBUTYRYLAMINO)PHENYL]-1-PIPERIDINYL} PROPYL)CYCLOPENTANECARBOXAMIDE]
8	CC(=O)Nc1cccc(C2CCN(CCCNC(=O)C(C)(c3ccccc3)c3ccccc3)CC2)c1 [Example 103, N-(3-{4-[3-(ACETYLAMINO)PHENYL]-1-PIPERIDINYL}PROPYL)-2,2-DIPHENYL PROPANAMIDE]
